In ChEMBL document CHEMBL1133988 (Bioorg Med Chem Lett, 2001):
pKi: −log10 of the molar value. ≈ marks a conversion by molar mass, not a printed value.

Legend:
[1] = system: Eimeria tenella; assay: In vitro antiprotozoal activity using […] bovine kidney host cells infected with Eimeria tenella; type: functional
[2] = Binding affinity towards histone deacetylase (HDAC) enzyme derived from chicken liver (CL) cells using [3H]11; parameters: species or system Gallus gallus
[3] = system: Plasmodium falciparum; assay: In vitro antiprotozoal activity against Plasmodium falciparum infected erythrocytes; type: functional, organism-based
[4] = target: Histone deacetylase; assay: Inhibitory activity against histone deacetylase (HDAC) enzyme derived from partially purified extracts of human HeLa cells using [3H]11 as radioligand
[5] = Tested in vitro by mammalian antiproliferative functional assay using human HeLa cells or foreskin fibroblasts
[6] = Binding affinity towards HDAC enzyme derived from chicken liver (CL) cells; parameters: species or system Gallus gallus

Compound | IC50 [3] | IC50 [4] | MIC [1] | pKi [2] | AP50 [5] | pKi [6]
CCC(=O)CCCCC[C@@H]1NC(=O)[C@H]2CCCCN2C(=O)[C@H]([C@@H](C)CC)NC(=O)[C@H](Cc2c(-c3ccc4c(ccn4C)c3)[nH]c3ccccc23)NC1=O | 0.1 µg/mL (≈ 0.138 µM) | – | 0.062 µg/mL (≈ 0.0858 µM) | 8.30 | – | –
CCC(=O)CCCCC[C@@H]1NC(=O)[C@H]2CCCCN2C(=O)[C@H]([C@@H](C)CC)NC(=O)[C@H](Cc2c(-c3cc(OC)cc(OC)c3)[nH]c3ccccc23)NC1=O | 0.25 µg/mL (≈ 0.343 µM) | 0.2 nM | 0.125 µg/mL (≈ 0.171 µM) | – | – | –
CCC(=O)CCCCC[C@@H]1NC(=O)[C@H]2CCCCN2C(=O)[C@H]([C@@H](C)CC)NC(=O)[C@H](c2cnc3ccccc3c2Cl)NC1=O [listing 1 of 2 here] | – | – | 0.2 µg/mL (≈ 0.319 µM) | – | 10000 ng/mL | –
CCC(=O)CCCCC[C@@H]1NC(=O)[C@H]2CCCCN2C(=O)[C@H]([C@@H](C)CC)NC(=O)[C@H](c2cnc3ccccc3c2N2CCCCC2)NC1=O [listing 1 of 2 here] | – | – | 0.125 µg/mL (≈ 0.185 µM) | – | 2500 ng/mL | –
CCC(=O)CCCCC[C@@H]1NC(=O)[C@H]2CCCCN2C(=O)[C@H]([C@@H](C)CC)NC(=O)[C@H](Cc2c(-c3ccccc3)[nH]c3ccccc23)NC1=O | 0.7 µg/mL (≈ 1.04 µM) | 4 nM | > 1 µg/mL | – | – | –
CCC(=O)CCCCC[C@@H]1NC(=O)[C@H]2CCCCN2C(=O)[C@H]([C@@H](C)CC)NC(=O)[C@H](CCOc2ccccc2)NC1=O | – | 34 nM | 0.25 µg/mL (≈ 0.428 µM) | – | 1450 ng/mL | –
CCC(=O)CCCCC[C@@H]1NC(=O)[C@H]2CCCCN2C(=O)[C@H]([C@@H](C)CC)NC(=O)[C@H](Cc2cn(OC)c3ccccc23)NC1=O [APICIDIN] | 0.058 µg/mL (≈ 0.093 µM) | – | 0.094 µg/mL (≈ 0.151 µM) | – | 89 ng/mL | 8.40
CCC(=O)CCCCC[C@@H]1NC(=O)[C@H]2CCCCN2C(=O)[C@H]([C@@H](C)CC)NC(=O)[C@H](c2cnc3ccccc3c2Cl)NC1=O [listing 2 of 2 here] | 0.225 µg/mL (≈ 0.359 µM) | 67 nM | – | – | – | 6.52
CCC(=O)CCCCC[C@@H]1NC(=O)[C@H]2CCCCN2C(=O)[C@H]([C@@H](C)CC)NC(=O)[C@H](C(=O)c2c[nH]c3ccccc23)NC1=O | 0.016 µg/mL (≈ 0.0263 µM) | – | 0.125 µg/mL (≈ 0.206 µM) | 7.92 | – | –
CCCCCCCCCCC(=O)C[C@@H]1NC(=O)[C@H](CCCCCC(=O)CC)NC(=O)[C@H]2CCCCN2C(=O)[C@H]([C@@H](C)CC)NC1=O | > 1 µg/mL | – | > 1 µg/mL | – | >10000 ng/mL | < 6.00
CCC(=O)CCCCC[C@@H]1NC(=O)[C@H]2CCCCN2C(=O)[C@H]([C@@H](C)CC)NC(=O)[C@H](c2cnc3ccccc3c2O)NC1=O | 0.04 µg/mL (≈ 0.0658 µM) | – | > 1 µg/mL | – | >10000 ng/mL | 6.00
CCC(=O)CCCCC[C@@H]1NC(=O)[C@H]2CCCCN2C(=O)[C@H]([C@@H](C)CC)NC(=O)[C@@H](C(=O)c2ccc3c(ccn3C)c2)NC1=O | 0.015 µg/mL (≈ 0.0241 µM) | – | 0.05 µg/mL (≈ 0.0804 µM) | 7.70 | – | –
CCC(=O)CCCCC[C@@H]1NC(=O)[C@H]2CCCCN2C(=O)[C@H]([C@@H](C)CC)NC(=O)[C@H](Cc2cn(OC)c3ccc(Br)cc23)NC1=O | 0.55 µg/mL (≈ 0.783 µM) | – | 0.5 µg/mL (≈ 0.712 µM) | 7.22 | – | –
CCC(=O)CCCCC[C@@H]1NC(=O)[C@H]2CCCCN2C(=O)[C@H]([C@@H](C)CC)NC(=O)[C@H](c2cnc3ccccc3c2N2CCCCC2)NC1=O [listing 2 of 2 here] | 0.055 µg/mL (≈ 0.0815 µM) | 13 nM | – | – | – | 7.00
CCC(=O)CCCCC[C@@H]1NC(=O)[C@H]2CCCCN2C(=O)[C@H]([C@@H](C)CC)NC(=O)[C@H](Cc2cn(CN3CCCC3)c3ccccc23)NC1=O | 0.035 µg/mL (≈ 0.0517 µM) | 0.2 nM | 0.031 µg/mL (≈ 0.0458 µM) | – | – | –
CCC(=O)CCCCC[C@@H]1NC(=O)[C@H]2CCCCN2C(=O)[C@H]([C@@H](C)CC)NC(=O)[C@H](c2cn(CC)c3ccccc3c2=O)NC1=O | 0.24 µg/mL (≈ 0.377 µM) | – | > 1 µg/mL | – | >10000 ng/mL | 5.70
CCC(=O)CCCCC[C@@H]1NC(=O)[C@H]2CCCCN2C(=O)[C@H]([C@@H](C)CC)NC(=O)[C@H](c2cn(OC)c3ccccc3c2=O)NC1=O | 0.04 µg/mL (≈ 0.0627 µM) | – | 0.25 µg/mL (≈ 0.392 µM) | – | 10000 ng/mL | 5.82
CCC(=O)CCCCC[C@@H]1NC(=O)[C@H]2CCCCN2C(=O)[C@H]([C@@H](C)CC)NC(=O)[C@@H](C(=O)c2c[nH]c3ccccc23)NC1=O | 0.07 µg/mL (≈ 0.115 µM) | – | 0.125 µg/mL (≈ 0.206 µM) | 7.52 | – | –
CCC(=O)CCCCC[C@@H]1NC(=O)[C@H]2CCCCN2C(=O)[C@H]([C@@H](C)CC)NC(=O)[C@H](CC2CN(OC)c3ccc(Br)cc32)NC1=O (stereo not given in full) | > 1 µg/mL | – | 0.1 µg/mL (≈ 0.142 µM) | 5.35 | – | –
CCC(=O)CCCCC[C@@H]1NC(=O)[C@H]2CCCCN2C(=O)[C@H]([C@@H](C)CC)NC(=O)[C@H](Cc2c[nH]c3ccccc23)NC1=O | 0.035 µg/mL (≈ 0.0589 µM) | 2 nM | 0.031 µg/mL (≈ 0.0522 µM) | – | – | –
CCC(=O)CCCCC[C@@H]1NC(=O)[C@H]2CCCCN2C(=O)[C@H]([C@@H](C)CC)NC(=O)[C@@H](c2cnc3ccccc3c2O)NC1=O | 0.055 µg/mL (≈ 0.0905 µM) | – | > 1 µg/mL | – | >10000 ng/mL | 6.30

Further lines, with some results ahead:

IC50 [3] | IC50 [4] | Compound | MIC [1] | pKi [2] | AP50 [5] | pKi [6]
0.02 µg/mL (≈ 0.0329 µM) | – | CCC(=O)CCCCC[C@@H]1NC(=O)[C@H]2CCCCN2C(=O)[C@H]([C@@H](C)CC)NC(=O)[C@H](Cc2cn(C)c3ccccc23)NC1=O | 0.125 µg/mL (≈ 0.206 µM) | 8.30 | – | –
0.775 µg/mL (≈ 1.38 µM) | – | CCC(=O)CCCCC[C@@H]1NC(=O)[C@H]2CCCCN2C(=O)[C@H]([C@@H](C)CC)NC(=O)[C@H](CC(=O)C(C)(C)C)NC1=O | > 1 µg/mL | – | >10000 ng/mL | 5.70
0.025 µg/mL (≈ 0.0372 µM) | – | CCC(=O)CCCCC[C@@H]1NC(=O)[C@H]2CCCCN2C(=O)[C@H]([C@@H](C)CC)NC(=O)[C@H](Cc2c(Br)[nH]c3ccccc23)NC1=O | 0.015 µg/mL (≈ 0.0223 µM) | 8.52 | – | –
0.1 µg/mL (≈ 0.157 µM) | 1.3 nM | CCC(=O)CCCCC[C@@H]1NC(=O)[C@H]2CCCCN2C(=O)[C@H]([C@@H](C)CC)NC(=O)[C@H](Cc2cn(CCN)c3ccccc23)NC1=O | > 1 µg/mL | – | – | –
0.85 µg/mL (≈ 1.42 µM) | – | CCC(=O)CCCCC[C@@H]1NC(=O)[C@H]2CCCCN2C(=O)[C@H]([C@@H](C)CC)NC(=O)[C@H](CC(=O)Cc2ccccc2)NC1=O | > 1 µg/mL | – | >10000 ng/mL | 5.70
0.5 µg/mL (≈ 0.797 µM) | 91 nM | CCC(=O)CCCCC[C@@H]1NC(=O)[C@H]2CCCCN2C(=O)[C@H]([C@@H](C)CC)NC(=O)[C@H](CC(=O)c2ccccc2[N+](=O)[O-])NC1=O | 0.125 µg/mL (≈ 0.199 µM) | – | – | –
0.18 µg/mL (≈ 0.289 µM) | – | CCC(=O)CCCCC[C@@H]1NC(=O)[C@H]2CCCCN2C(=O)[C@H]([C@@H](C)CC)NC(=O)[C@H](Cc2cn(CC)c3ccccc23)NC1=O | 0.05 µg/mL (≈ 0.0804 µM) | 8.00 | – | –
0.777 µg/mL (≈ 1.33 µM) | – | CCC(=O)CCCCC[C@@H]1NC(=O)[C@H]2CCCCN2C(=O)[C@H]([C@@H](C)CC)NC(=O)[C@@H](C(=O)Cc2ccccc2)NC1=O | 0.5 µg/mL (≈ 0.858 µM) | – | >10000 ng/mL | 6.30
0.15 µg/mL (≈ 0.231 µM) | 15 nM | CCCn1cc(C(=O)[C@H]2NC(=O)[C@H](CCCCCC(=O)CC)NC(=O)[C@H]3CCCCN3C(=O)[C@H]([C@@H](C)CC)NC2=O)c2ccccc21 | 0.125 µg/mL (≈ 0.192 µM) | – | – | –
> 1 µg/mL | – | CCC(=O)CCCCC[C@@H]1NC(=O)[C@H]2CCCCN2C(=O)[C@H]([C@@H](C)CC)NC(=O)[C@H](Cc2cn(CC(=O)O)c3ccccc23)NC1=O | > 1 µg/mL | 7.10 | – | –
